The test system of this experiment is Fasciola hepatica. Nature of the experiment: Trial in sheep artificially infected with Fasciola hepatica (faecal egg counts and adult helminth counts at necropsy). Format: in vivo, Schafe. Conditions: for adulte Helminthen Mittelwert: group mean of 4 sheep; for EPG 12. Woche / EPG 13. Woche / adulte Helminthen Anzahl: sheep, individual animals; for EPG 12. Woche: 12th week after infection; for EPG 13. Woche: 13th week after infection; for adulte Helminthen Anzahl: at necropsy; for adulte Helminthen Reduktion in %: versus untreated control animals. The procedure:
Versuch an mit Fasciola hepatica und Nematoden […] von Fasciola hepatica infiziert. Zu diesem Zweck […] in einer wässrigen 0,4%igen Suspension von Carboxymethylcellulose direkt in den Rumen […] oral mit je 10.000 bzw. 5.000 […] 3) von […] Trichostrongylus colubriformis und Haemonchus contortus infiziert. Für die Medikierung wurden die Versuchstiere in gleichgrossen Gruppen und in […], in denen der Anteil von Wirkstoff der Formel 1 2-5 mg/kg und der Anteil Wirkstoff der Formel II 3-7 mg/kg betrugen, an die […] in Gehegeboxen unter Normalbedingungen gehalten. Zur […] in bestimmten Zeitinvervallen nach Infizierung und Medikierung die mit dem Kot […] und die […]. Die erhaltenen Resultate […] und der Kontrollgruppen wurden für die Auswertung verglichen. Indikation: Fasciola hepatica […]): 19

“And” between values parts separate entries of the source, which are not always exact repeats. Identical values can stand only once.

As to `CSc1nc2cc(Cl)c(Oc3cccc(Cl)c3Cl)cc2[nH]1` [Substanz I, 5-Chlor-6-(2',3'-dichlorphenoxy)-2-methylthiobenzimidazol], under “I 2,5 mg/kg”, the “adulte Helminthen Mittelwert” value is given as 48,5; the “EPG 12. Woche” value was 210 Eier pro gr Faeces and 160 Eier pro gr Faeces and 120 Eier pro gr Faeces and 20 Eier pro gr Faeces; the “EPG 13. Woche” value was 130 Eier pro gr Faeces and 160 Eier pro gr Faeces and 180 Eier pro gr Faeces and 15 Eier pro gr Faeces; the “adulte Helminthen Anzahl” value was 58 and 65 and 51 and 20. Also, for the setting “I 2,5 mg/kg”, the “adulte Helminthen Reduktion in %” value is listed as 52,7%.
For the compound `c1ccc([C@H]2CN3CCSC3=N2)cc1` [Substanz II, L-(-)-2,3,5,6-Tetrahydro-6-phenylimidazo[2,1-b]-thiazol], under “II 6,75 mg/kg”, the “adulte Helminthen Mittelwert” value is 92,8; the “EPG 12. Woche” value was 225 Eier pro gr Faeces and 990 Eier pro gr Faeces and 160 Eier pro gr Faeces and 226 Eier pro gr Faeces; the “EPG 13. Woche” value was 810 Eier pro gr Faeces and 1140 Eier pro gr Faeces and 250 Eier pro gr Faeces (2×); the “adulte Helminthen Anzahl” value is 103 and 108 and 71 and 89. Further, the “adulte Helminthen Reduktion in %” value (II 6,75 mg/kg) was 9,6%.

Source of the values: EP0101412A2, “Anthelmintics” (CIBA-GEIGY AG, priority 1982, dated 1984).
